Test results published in publication PMC5424463, “A strategy based on nucleotide specificity leads to a subfamily-selective and cell-active inhibitor of N ^6-methyladenosine demethylase FTO” (Chemical Science, 2014).
Where a name gives a salt, the structure may show the parent alone. Read-outs that look alike come from different tables or passages of the source.

Assays:
FTO [1] = biological target: T1, FTO (Homo sapiens, UniProt Q9C0B1); test: HPLC-based inhibition assay for FTO, m3T substrate; format: biochemical
T1 construct: The human full length FTO construct used in this study; made in house; host or cells: E. coli BL21 (DE3) Rosetta T1R
Procedure: HPLC-based inhibition assays for FTO
The assay was modified from previously reported method.[17] It is performed in triplicate for each inhibitor, in a final reaction volume of 25 µL. Reaction consisted of FTO (1 µM), 2OG (50 µM), (NH4)2Fe(SO4)2·6H2O (50 µM), L-ascorbate (2 mM), 3-methylthymidine (m3T substrate, 10 µM) in 50 mM HEPES buffer, pH 7.5, and inhibitor at various concentrations (final DMSO concentration not more than 1% v/v of assay mix). The reaction was incubated at 4°C for 1 h, before analysis on a HPLC system. The substrate (m3T) and the demethylated product (thymidine) were separated using a Zorbax C18 column (4.6 mm x 250 mm) with a […]
flow rate of 1 mL/min at room temperature.
The percentage inhibition was estimated based on the peak areas of the 3-methylthymidine substrate and the thymidine product. For IC50 determination, eight different concentrations of […]
the variation in percentage demethylation at different inhibitor concentrations, using nonlinear regression, with normalized dose-response fit on GraphPad Prism 6.0™.
HPLC-based assay for FTO was also performed using an m6A-ssRNA as substrate. The assay was modified from previously reported method.[21] All reaction conditions are as described for the inhibition of m3T demethylation above, except that a 15-mer ssRNA with the sequence 5’-CUUGUCA(m6A)CAGCAGA-3’ (Yale University, W.M. Keck Foundation Biotechnology Resource Laboratory) was used as substrate (10 µM). The reaction was analysed on a bio-inert HPLC system. The m6A-ssRNA substrate and the corresponding demethylated product were separated using a Dionex DNAPac PA200 anion-exchange

ALKBH5 = biological target: T2, ALKBH5 (Homo sapiens, UniProt Q6P6C2); test: Differential scanning fluorimetry (DSF)-based binding assay, ALKBH5; conditions: 100 μM compound, 2 μM protein; for Tm shift (ALKBH5): 50 μM MnCl2; for ΔTm at 100 µM: 50 μM MnCl2, read-out: Tm shift (ALKBH5)
T2 construct: pNIC28-Bsa4 ALKBH5 (encompassing residues 66-292); made in house; host or cells: E. coli BL21 (DE3) Rosetta T1R
Procedure: (§1) Superdex-200 column (GE Healthcare) pre-equilibrated with 20 mM HEPES, pH 7.5, 300 mM NaCl, 10% (v/v) glycerol, 0.5 mM TCEP. […]
(§2) Differential scanning fluorimetry (DSF)-based binding assay
(§3) DSF-based binding assay was performed using a MiniOpticon™ Real-Time PCR Detection System (Bio-Rad), monitoring protein unfolding using SYPRO orange (Invitrogen) according […]
(§4) to the reported method.[16] […]
(§5) and emission respectively. Reaction mixes contained 2 μM protein, 50 μM MnCl2, 100 μM […]
(§6) Reagents were prepared in 50mM
(§7) HEPES buffer, pH 7.5 except metals, which were dissolved as 100 mM stocks in 20 mM HCl, then further diluted in MilliQ water. Compounds tested were prepared in 100% DMSO and added such that the final concentration of DMSO was not more than 1% v/v of assay […]
(§8) increased linearly by 1°C min -1. The software provided was used to perform global minimum subtraction. The inflection point, representing Tm, was calculated by fitting the Boltzmann equation to the sigmoidal curves obtained; data were processed using GraphPad Prism 6.0™.
(§9) The Tm shift caused by the addition of small molecules/ fragments was determined by subtraction of the “reference” Tm (protein incubated with metal and 1% v/v DMSO) from the Tm obtained in the presence of the compound. […]

ALKBH2 = biological target: T3, ALKBH2 (Homo sapiens, UniProt Q6NS38); test: Differential scanning fluorimetry (DSF)-based binding assay, ALKBH2; conditions: DSF, 100 μM compound, 2 μM protein, 50 μM MnCl2; for ΔTm at 100 µM: read-out: Tm shift (ALKBH2)
T3 construct: made in house; host or cells: E. coli BL21 (DE3)
T3 sequence (Q6NS38 56-258): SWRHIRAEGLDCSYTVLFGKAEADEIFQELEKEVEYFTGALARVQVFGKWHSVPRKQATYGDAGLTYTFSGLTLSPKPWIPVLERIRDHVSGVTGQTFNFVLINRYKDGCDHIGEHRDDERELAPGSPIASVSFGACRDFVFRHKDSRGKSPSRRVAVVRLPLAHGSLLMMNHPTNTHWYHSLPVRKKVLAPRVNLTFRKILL
Procedure: as §1, §2
(§10) DSF-based binding assay was performed using a MiniOpticon™ Real-Time PCR Detection System (Bio-Rad), monitoring protein unfolding using SYPRO orange (Invitrogen) according to the reported method.[16] FAM (492 nm) and ROX (610 nm) filters were used for excitation and emission respectively. Reaction mixes contained 2 μM protein, 50 μM MnCl2, 100 μM compounds, 5x SYPRO orange in a final volume of 50 μl. Reagents were prepared in 50mM HEPES buffer, pH 7.5 except metals, which were dissolved as 100 mM stocks in 20 mM HCl, then further diluted in MilliQ water. Compounds tested were prepared in 100% DMSO and added such that the final concentration of DMSO was not more than 1% v/v of assay […]
as §8, with “mix. Fluorescence readings were taken every 1°C in the range 25-95°C, with the temperature increased” for “increased”
(§11) The Tm shift caused by the addition of small molecules/ fragments was determined by subtraction of the “reference” Tm (protein incubated with metal and 1% v/v DMSO) from the Tm obtained in the presence of the compound. The assay was performed in triplicate for each inhibitor, with standard deviations typically < 1°C. […]

AlkB = biological target: T4, AlkB (Escherichia coli, UniProt P05050); test: Differential scanning fluorimetry (DSF)-based binding assay, AlkB; conditions: 100 μM compound, 2 μM protein; for Tm shift (AlkB): 50 μM MnCl2; for ΔTm at 100 µM: 50 μM MnCl2, read-out: Tm shift (AlkB)
T4 construct: made in house; host or cells: E. coli BL21 (DE3) Rosetta T1R
Procedure: as §1, §2, §10
as §8, with “mix. Fluorescence readings were taken every 1°C in the range 25-95°C, with the temperature increased” for “increased”
as §11

ALKBH3 = biological target: T5, ALKBH3 (Homo sapiens, UniProt Q96Q83); test: Differential scanning fluorimetry (DSF)-based binding assay, ALKBH3; conditions: DSF, 100 μM compound, 2 μM protein, 50 μM MnCl2; for ΔTm at 100 µM: read-out: Tm shift (ALKBH3)
T5 construct: Human ALKBH3 (encompassing residues 1- 286); purchased ProSpec-Tany Technogene Ltd, Israel
T5 sequence (Q96Q83 1-286): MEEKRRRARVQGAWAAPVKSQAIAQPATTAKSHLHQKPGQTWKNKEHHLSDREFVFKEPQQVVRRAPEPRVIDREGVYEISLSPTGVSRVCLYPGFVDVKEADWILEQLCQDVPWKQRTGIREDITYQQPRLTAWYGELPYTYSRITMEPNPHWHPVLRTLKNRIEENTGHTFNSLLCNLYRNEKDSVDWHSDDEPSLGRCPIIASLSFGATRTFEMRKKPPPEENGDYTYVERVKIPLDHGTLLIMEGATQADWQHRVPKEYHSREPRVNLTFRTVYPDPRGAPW
Procedure: as §1, §2, §10
as §8, with “mix. Fluorescence readings were taken every 1°C in the range 25-95°C, with the temperature increased” for “increased”
as §11

FTO [2] = biological target: T1, FTO; test: Differential scanning fluorimetry (DSF)-based binding assay, FTO; conditions: 100 μM compound, 2 μM protein; for Tm shift (FTO): 50 μM MnCl2; for ΔTm at 100 µM: 50 μM MnCl2, read-out: Tm shift (FTO)
Procedure: as §1, §2, §3, §4, §5, §6, §7, §8, §9

[3] = HPLC-based demethylase assay, m3T substrate, read-out: IC50 (FTO)

T2 sequence (Q6P6C2 66-292): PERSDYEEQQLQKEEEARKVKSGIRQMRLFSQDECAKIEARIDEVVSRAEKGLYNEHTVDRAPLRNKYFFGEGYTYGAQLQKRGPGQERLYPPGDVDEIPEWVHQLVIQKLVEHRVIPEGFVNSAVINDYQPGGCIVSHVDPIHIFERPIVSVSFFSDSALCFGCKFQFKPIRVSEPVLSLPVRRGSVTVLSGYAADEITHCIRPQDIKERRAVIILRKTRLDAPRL
T1 sequence (Q9C0B1 whole entry): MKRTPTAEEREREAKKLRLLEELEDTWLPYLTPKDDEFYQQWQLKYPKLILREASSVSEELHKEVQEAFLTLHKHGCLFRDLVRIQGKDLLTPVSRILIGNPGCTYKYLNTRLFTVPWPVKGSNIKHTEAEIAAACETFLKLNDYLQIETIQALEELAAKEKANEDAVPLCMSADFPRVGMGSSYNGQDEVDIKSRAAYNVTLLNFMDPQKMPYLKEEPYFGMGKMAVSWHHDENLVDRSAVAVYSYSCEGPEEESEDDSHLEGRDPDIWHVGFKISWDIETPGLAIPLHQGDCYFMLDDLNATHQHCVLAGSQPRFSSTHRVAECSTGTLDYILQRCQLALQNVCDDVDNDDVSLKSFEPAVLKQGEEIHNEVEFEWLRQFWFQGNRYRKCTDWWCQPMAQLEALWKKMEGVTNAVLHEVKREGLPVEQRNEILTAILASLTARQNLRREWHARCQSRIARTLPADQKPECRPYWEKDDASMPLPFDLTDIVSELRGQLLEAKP
T4 sequence (P05050 12-216): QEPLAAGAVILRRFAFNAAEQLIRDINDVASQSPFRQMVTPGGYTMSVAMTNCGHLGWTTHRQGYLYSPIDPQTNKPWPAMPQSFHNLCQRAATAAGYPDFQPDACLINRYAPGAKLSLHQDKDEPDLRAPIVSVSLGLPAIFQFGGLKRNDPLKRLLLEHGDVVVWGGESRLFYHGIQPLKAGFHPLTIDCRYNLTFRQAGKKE

Compound	Tm shift (ALKBH5) (ALKBH5)	Tm shift (ALKBH2) (ALKBH2)	Tm shift (AlkB) (AlkB)	Tm shift (ALKBH3) (ALKBH3)	Tm shift (FTO) (FTO [2])	other results
NNC(=O)/C=C\C(=O)O [Compound 3, maleate hydrazide]	–	–	–	–	–	IC50 (FTO [1]; [3]): > 100 µM
O=C(O)/C=C/C(=O)NNC(=O)c1cnc2ccccc2c1 [Compound 8]	–	–	–	–	–	IC50 (FTO) (FTO [1]; HPLC-based demethylase assay, m3T substrate): low micromolar range
ATTGTGG(A)CUGCAGC: unmethylated counterpart of the 15-mer m6A ssRNA	3.6 °C	1.2 °C	2.4 °C	3.5 °C	3.4 °C	–
Cc1cn([C@H]2C[C@H](O)[C@@H](CO)O2)c(=O)n(C)c1=O [m3T, N ^3-methylthymidine]	–	–	–	–	–	ΔTm at 100 µM (ALKBH5): 1.1 °C; ΔTm at 100 µM (ALKBH2): 1.1 °C; ΔTm at 100 µM (AlkB): 1.4 °C; ΔTm at 100 µM (ALKBH3): 1.3 °C; ΔTm at 100 µM (FTO [2]): 12.1 °C
CN(C)NC(=O)CCC(=O)O [daminozide, reference compound]	–	–	–	–	–	IC50 (FTO [1]): > 100 µM
ATTGTGG(m3T)CTGCAGC: 15-mer m3T-containing ssDNA	2.6 °C	1.5 °C	3.1 °C	2.9 °C	3.0 °C	–
ATTGTGG(T)CTGCAGC: unmethylated counterpart of the 15-mer m3T ssDNA	3.4 °C	1.3 °C	2.7 °C	2.4 °C	3.2 °C	–
CNc1ncnc2c1ncn2[C@@H]1O[C@H](CO)[C@@H](O)[C@H]1O [m6A, N ^6-methyladenosine]	–	–	–	–	–	ΔTm at 100 µM (ALKBH5): 9.8 °C; ΔTm at 100 µM (ALKBH2): 1.3 °C; ΔTm at 100 µM (AlkB): 2.6 °C; ΔTm at 100 µM (ALKBH3): 2.1 °C; ΔTm at 100 µM (FTO [2]): 2.4 °C
NNC(=O)CCC(=O)O [Compound 1, succinate hydrazide]	–	–	–	–	–	IC50 (FTO [1]; [3]): > 100 µM
NNC(=O)/C=C/C(=O)O [Compound 2, fumarate hydrazide]	–	–	–	–	–	IC50 (FTO [1]; [3]): > 100 µM
ATTGTGG(m6A)CUGCAGC: 15-mer m6A-containing ssRNA	3.5 °C	1.0 °C	2.7 °C	3.0 °C	3.0 °C	–
